In patent EP2801357A1, “Carboxylated stilbenes for activating AMPK and sirtuins” (IMD Natural Solutions GmbH, priority 2013, dated 2014):
Like-named read-outs stand apart in the source and are kept apart here. Marks after values point to notes of the source that are not given here.

Assays:
human sirtuin-1 (Sirt1) = molecular target: T1, human sirtuin-1 (Sirt1) (Homo sapiens, UniProt Q96EB6); assay: SIRT1 Fluorimetric Drug Discovery Kit, Sirt1 activation; format: biochemical
T1 construct: purchased BioMol, Hamburg, Germany
T1 sequence (Q96EB6 1-747): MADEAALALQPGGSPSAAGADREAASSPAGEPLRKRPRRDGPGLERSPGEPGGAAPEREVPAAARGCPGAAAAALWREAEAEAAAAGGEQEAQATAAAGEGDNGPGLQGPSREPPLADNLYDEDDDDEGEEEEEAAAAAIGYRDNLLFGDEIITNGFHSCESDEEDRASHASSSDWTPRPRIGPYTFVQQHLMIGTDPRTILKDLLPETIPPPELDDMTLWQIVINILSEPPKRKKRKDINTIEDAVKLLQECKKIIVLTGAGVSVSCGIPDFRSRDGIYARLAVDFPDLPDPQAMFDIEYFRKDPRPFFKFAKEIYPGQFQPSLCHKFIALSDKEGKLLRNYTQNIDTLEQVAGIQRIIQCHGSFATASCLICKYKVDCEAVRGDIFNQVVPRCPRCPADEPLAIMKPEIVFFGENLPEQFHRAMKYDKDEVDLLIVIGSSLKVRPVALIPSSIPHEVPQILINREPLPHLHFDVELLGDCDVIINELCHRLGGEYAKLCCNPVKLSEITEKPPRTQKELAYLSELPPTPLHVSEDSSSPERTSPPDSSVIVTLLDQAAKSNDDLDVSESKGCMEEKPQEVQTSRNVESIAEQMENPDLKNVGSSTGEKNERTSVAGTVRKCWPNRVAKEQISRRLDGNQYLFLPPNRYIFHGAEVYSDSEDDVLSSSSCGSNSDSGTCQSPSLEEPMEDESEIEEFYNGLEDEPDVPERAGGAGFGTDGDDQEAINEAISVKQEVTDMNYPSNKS
Description: Compounds were tested for Sirt1 activation using the SIRT1 Fluorimetric Drug Discovery Kit (BioMol, Hamburg, Germany), Testing was carried out in duplicate following the manufacturer's instructions. Assay medium: 50mM Tris-HCl pH 8.0, 137 mM NaCl, 2.7 mM KCI, 1 mM MgCl2, 1 mg/ml bovine serum albumin (BSA). Stock solutions of the test compounds (10 mM in DMSO) were used, yielding a final concentration of 10 µM in the assay plate. Readout was obtained by measuring the fluorescence in a microtiter plate reader (excitation: 380 nm; detection: 440 nm).
The agonistic effect on Sirt1 was determined at different concentrations. For this purpose, the test compound stock solutions were diluted to yield concentrations of 0.3, 1, 3, 10 and 30 µM, respectively, in the assay, which was performed as described above. The compound of structure (I-1) was selected for this experiment.
The selectivity of the agonistic effect of the compound of formula (I-1) on different sirtuin isoforms was investigated. For this purpose, in vitro testing was performed as described in Example 1 using the respective SIRT1 Fluorimetric Drug Discovery Kit, SIRT2 Fluorimetric Drug Discovery Kit, and SIRT3 Fluorimetric Drug Discovery Kit (each from BioMol, Hamburg, Germany). […] The dose-response effect is slightly lesser on Sirt3. Table 3: Activity on Sirt1

Sirt3 = molecular target: T2, Sirt3 (Homo sapiens, UniProt Q9NTG7); assay: SIRT3 Fluorimetric Drug Discovery Kit, Sirt3 activation; format: biochemical
T2 construct: purchased BioMol, Hamburg, Germany
T2 sequence (Q9NTG7 1-399): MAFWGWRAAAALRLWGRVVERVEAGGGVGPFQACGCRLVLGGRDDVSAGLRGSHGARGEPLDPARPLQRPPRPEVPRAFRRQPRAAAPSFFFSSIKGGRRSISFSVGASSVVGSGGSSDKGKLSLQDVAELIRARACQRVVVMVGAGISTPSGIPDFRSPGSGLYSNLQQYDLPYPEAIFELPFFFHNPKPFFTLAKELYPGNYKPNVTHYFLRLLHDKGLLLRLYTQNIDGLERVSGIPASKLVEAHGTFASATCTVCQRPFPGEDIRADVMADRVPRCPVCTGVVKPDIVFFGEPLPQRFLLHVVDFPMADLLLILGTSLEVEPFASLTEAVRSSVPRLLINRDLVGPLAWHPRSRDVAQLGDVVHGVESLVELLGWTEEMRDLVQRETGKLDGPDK

[1] = system: normal human dermal fibroblasts (NHDF); assay: Mitochondria content of NHDF, Mito-ID Green Detection Kit; format: cell-based
Description: The effect of compound (I-1) on mitochondria biosynthesis was investigated in normal human dermal fibroblasts (NHDF). NHDF were obtained from PromoCell (Lot No. 006151; donor; from eyelid skin) and cultivated in Fibroblast Growth Medium (PromoCell; Cat. No. C-023020) supplemented with Supplement Mix (PromoCell; Cat. No. C-039215) at 37 °C /5% CO2. NHDF were seeded in flat-bottom 96-well plates (5000 cells / well) and incubated in said medium for 24 h or 48 h, respectively, with the compounds present in concentrations ranging from 0.03 µM to 200 µM. Mitochondria content was analyzed using the Mito-ID® Green Detection Kit for fluorescence microscopy (Enzo Life Sciences; Cat. No. ENZ-51055-K500). Fluorometric analysis was done using a Spectramax plate reader (Molecular Devices) and following the manufacturer's protocol. Cytotoxicity was determined in parallel by fluorometric readout using the Resazurin Based In Vitro Toxicology Assay Kit (Sigma Aldrich, Cat. No. TOX-8), and following the manufacturer's protocol.

Fold increase in sirt1 activity versus control (human sirtuin-1 (Sirt1); Example 1(a), 10 µM, trans-resveratrol as control (1.0)): 23.9 | remaining activity at 0.3 µM (human sirtuin-1 (Sirt1); Example 1(b), Table 2, 0.3 µM, read-out: Activity [% control]): 147% | remaining activity at 1 µM (human sirtuin-1 (Sirt1); Example 1(b), Table 2, 1.0 µM, read-out: Activity [% control]): 233% | remaining activity at 3 µM (human sirtuin-1 (Sirt1); Example 1(b), Table 2, 3.0 µM, read-out: Activity [% control]): 434% | remaining activity at 10 µM (human sirtuin-1 (Sirt1); Example 1(b), Table 2, 10.0 µM, read-out: Activity [% control]): 626% | EC300 (human sirtuin-1 (Sirt1); Example 1(b), concentration that gave 3-times the basal response of the enzyme): 2.0 µM | remaining activity at 0.3 µM (human sirtuin-1 (Sirt1); Example 2, Table 3, 0.3 µM, read-out: Activity [% control]): 111% | remaining activity at 1 µM (human sirtuin-1 (Sirt1); Example 2, Table 3, 1.0 µM, read-out: Activity [% control]): 121% | remaining activity at 3 µM (human sirtuin-1 (Sirt1); Example 2, Table 3, 3.0 µM, read-out: Activity [% control]): 168% | remaining activity at 10 µM (human sirtuin-1 (Sirt1); Example 2, Table 3, 10.0 µM, read-out: Activity [% control]): 256% | remaining activity at 30 µM (human sirtuin-1 (Sirt1); Example 2, Table 3, 30.0 µM, read-out: Activity [% control]): 515% | EC300 (human sirtuin-1 (Sirt1); Example 2, Table 6, Sirt1): 12.9 µM | remaining activity at 0.3 µM (Sirt3; Example 2, Table 5, 0.3 µM, read-out: Activity [% control]): 109% | remaining activity at 1 µM (Sirt3; Example 2, Table 5, 1.0 µM, read-out: Activity [% control]): 124% | remaining activity at 3 µM (Sirt3; Example 2, Table 5, 3.0 µM, read-out: Activity [% control]): 156% | remaining activity at 10 µM (Sirt3; Example 2, Table 5, 10.0 µM, read-out: Activity [% control]): 216% | remaining activity at 30 µM (Sirt3; Example 2, Table 5, 30.0 µM, read-out: Activity [% control]): 247% | EC300 (Sirt3; Example 2, Table 6, Sirt3, footnote for (I-1): clear activation in dose-response curve visible): >30* µM
Structure (SMILES): CCOC(=O)c1c(O)cccc1/C=C/c1ccc(OCC)cc1 [(I-1)]
Signal intensity [% Control] ([1]; 24 h incubation time, 0.03 µM): 100 % Control | Signal intensity [% Control] ([1]; 24 h incubation time, 0.09 µM): 99 % Control | Signal intensity [% Control] ([1]; 24 h incubation time, 0.27 µM): 100 % Control | Signal intensity [% Control] ([1]; 24 h incubation time, 0.82 µM): 101 % Control | Signal intensity [% Control] ([1]; 24 h incubation time, 2.47 µM): 103 % Control | Signal intensity [% Control] ([1]; 24 h incubation time, 7.41 µM): 114 % Control | Signal intensity [% Control] ([1]; 24 h incubation time, 22.22 µM): 182 % Control | Signal intensity [% Control] ([1]; 24 h incubation time, 66.67 µM): 354 % Control | Signal intensity [% Control] ([1]; 24 h incubation time, 200.00 µM): 906 % Control | Signal intensity [% Control] ([1]; 48 h incubation time, 0.03 µM): 97 % Control | Signal intensity [% Control] ([1]; 48 h incubation time, 0.09 µM): 92 % Control | Signal intensity [% Control] ([1]; 48 h incubation time, 0.27 µM): 91 % Control | Signal intensity [% Control] ([1]; 48 h incubation time, 0.82 µM): 93 % Control | Signal intensity [% Control] ([1]; 48 h incubation time, 2.47 µM): 94 % Control | Signal intensity [% Control] ([1]; 48 h incubation time, 7.41 µM): 103 % Control | Signal intensity [% Control] ([1]; 48 h incubation time, 22.22 µM): 147 % Control | Signal intensity [% Control] ([1]; 48 h incubation time, 66.67 µM): 293 % Control | Signal intensity [% Control] ([1]; 48 h incubation time, 200.00 µM): 765 % Control | concentrations with significant enhancement of mitochondria biosynthesis ([1]; NHDF, 24 h and 48 h): ≥ 10 µM
